From ChEMBL document CHEMBL5131472, “Synthesis and antiviral activity of formycin derivatives with anti-influenza virus activity” (Bioorg Med Chem, 2022) come the findings set out here.

One data set relates to Influenza A virus. The data set can be described thus: Antiviral activity against Influenza A virus A/WSN/33(H1N1) infected in dog MDCK cells assessed as reduction in viral titer in supernatants incubated for 24 hrs by plaque assay. It counts as functional, organism-based.
The nature of data set [1]: Cytotoxicity against dog MDCK cells assessed as reduction in cell viability incubated for 48 hrs by CellTiter96 Aqueous one solution assay. It is filed as toxicity, cell-based, Canis lupus familiaris.

For `OC[C@H]1O[C@@H](c2n[nH]c3c(NCCl)ncnc23)[C@H](O)[C@@H]1O`, the IC50 with Influenza A virus was 0.282 µM. Further, in data set [1], the CC50 at 48 h was found to be 19 µM.

Turning to `O=c1[nH]cnc2c([C@@H]3O[C@H](CO)[C@@H](O)[C@H]3O)n[nH]c12` [FORMYCIN B], the IC50 in the data set on Influenza A virus turned out to be 3.63 µM. For the same molecule, the CC50 at 48 h in data set [1] was 68 µM.

For `CSc1ncnc2c([C@@H]3O[C@H](CO)[C@H](O)[C@H]3O)n[nH]c12`, in data set [1], the cytotoxic concentration (CC50) at 48 h was over 1000 µM.

As for `CCc1ncnc2c([C@@H]3O[C@H](CO)[C@@H](O)[C@H]3O)n[nH]c12`, the half-maximal cytotoxic concentration (CC50) at 48 h in data set [1] was over 1000 µM.

As to `OC[C@H]1O[C@@H](c2n[nH]c3c(SC(F)(F)F)ncnc23)[C@H](O)[C@@H]1O`, the IC50 in the data set on Influenza A virus is 0.397 µM. Further, in data set [1], the CC50 at 48 h was determined as 3.6 µM.

Take `CSc1ncnc2c([C@H]3C=C[C@@H](CO)O3)n[nH]c12`: the CC50 at 48 h in data set [1] came to 190 µM.

`CSc1ncnc2c([C@@H]3O[C@H](CO)[C@@H](O)[C@H]3O)n(C)nc12`: in data set [1], the CC50 at 48 h is over 1000 µM.

As for `OC[C@H]1O[C@@H](c2n[nH]c3c(N4CCCCC4)ncnc23)[C@H](O)[C@@H]1O`, in data set [1], the CC50 at 48 h came to 289 µM.

`OC[C@H]1O[C@@H](c2n[nH]c3c(N4CCOCC4)ncnc23)[C@H](O)[C@@H]1O`: the CC50 at 48 h in data set [1] was over 1000 µM.

For the molecule `CCCCNc1ncnc2c([C@@H]3O[C@H](CO)[C@@H](O)[C@H]3O)n[nH]c12`, the IC50 in the data set on Influenza A virus came out at 0.68 µM. Besides, in data set [1], the CC50 at 48 h is over 1000 µM.

Regarding `OC[C@H]1O[C@@H](c2n[nH]c3c(-c4cnn[nH]4)ncnc23)[C@H](O)[C@@H]1O`, in data set [1], the CC50 at 48 h is over 1000 µM.

Turning to `OC[C@H]1O[C@@H](c2n[nH]c3c(-n4cncn4)ncnc23)[C@H](O)[C@@H]1O`, the IC50 in the data set with Influenza A virus is 0.251 µM. Besides, in data set [1], the CC50 at 48 h was 7.9 µM.

For the molecule `OC[C@H]1O[C@@H](c2n[nH]c3c([SeH])ncnc23)[C@H](O)[C@@H]1O`, the IC50 in the data set with Influenza A virus worked out at 0.035 µM. For the same molecule, the CC50 at 48 h in data set [1] worked out at 5.6 µM.

`OC[C@H]1O[C@@H](c2nn3c4c(ncnc24)SCC3)[C@H](O)[C@@H]1O`: the half-maximal cytotoxic concentration (CC50) at 48 h in data set [1] came out at 249 µM.

Turning to `CSc1ncnc2c([C@@H]3O[C@H](CO)[C@@H](O)[C@@]3(C)O)n[nH]c12`, in the data set with Influenza A virus, the IC50 amounted to 2.59 µM. Besides, the CC50 at 48 h in data set [1] is over 1000 µM.

Consider `CSc1nc(O)nc2c([C@@H]3O[C@H](CO)[C@@H](O)[C@H]3O)n[nH]c12`, for which the IC50 in the data set on Influenza A virus is over 1 µM. Moreover, in data set [1], the CC50 at 48 h is over 1000 µM.

With `C[Se]c1ncnc2c([C@@H]3O[C@H](CO)[C@@H](O)[C@H]3O)n[nH]c12`, in the data set with Influenza A virus, the IC50 was 0.024 µM. Moreover, the CC50 at 48 h in data set [1] was under 0.1 µM.

`CN[C@H]1[C@H](O)[C@@H](CO)O[C@H]1c1n[nH]c2c(SC)ncnc12`: the CC50 at 48 h in data set [1] came out at 49 µM.

For `COc1ncnc2c([C@@H]3O[C@H](CO)[C@@H](O)[C@H]3O)n[nH]c12`, the IC50 in the data set with Influenza A virus is 0.088 µM. In addition, the CC50 at 48 h in data set [1] amounted to 1.2 µM.

For `CSc1ncnc2c([C@H]3C[C@H](O)[C@@H](CO)O3)n[nH]c12`, the IC50 in the data set with Influenza A virus was over 3 µM. Moreover, the CC50 at 48 h in data set [1] is over 1000 µM.

In the case of `CCSc1ncnc2c([C@@H]3O[C@H](CO)[C@@H](O)[C@H]3O)n[nH]c12`, the IC50 in the data set on Influenza A virus came out at 0.201 µM. Besides, in data set [1], the CC50 at 48 h is over 1000 µM.

Consider `CN(C)c1ncnc2c([C@@H]3O[C@H](CO)[C@@H](O)[C@H]3O)n[nH]c12`, for which, in the data set on Influenza A virus, the IC50 is 2.84 µM. Moreover, the cytotoxic concentration (CC50) at 48 h in data set [1] is 70 µM.

On to `C=CCSc1ncnc2c([C@@H]3O[C@H](CO)[C@@H](O)[C@H]3O)n[nH]c12`, for which the IC50 in the data set on Influenza A virus was 0.22 µM. For the same molecule, the CC50 at 48 h in data set [1] amounted to 412 µM.

As to `CSc1ncnc2c([C@@H]3O[C@H](CO)[C@@H](O)[C@H]3O)nn(C)c12`, in the data set with Influenza A virus, the IC50 amounted to 0.344 µM. Besides, the CC50 at 48 h in data set [1] amounted to 205 µM.

Take `CSc1ncnc2c([C@@H]3O[C@H](CO)[C@@H](O)[C@@H]3O)n[nH]c12`: the IC50 in the data set on Influenza A virus was over 3 µM. Moreover, the CC50 at 48 h in data set [1] was over 1000 µM.

In the case of `CSc1ncnc2c([C@@H](CO)OC(CO)CO)n[nH]c12`, in data set [1], the CC50 at 48 h was over 1000 µM.

Turning to `CCNc1ncnc2c([C@@H]3O[C@H](CO)[C@@H](O)[C@H]3O)n[nH]c12`, in the data set on Influenza A virus, the IC50 is 0.313 µM. The CC50 at 48 h in data set [1] came out at 5.7 µM.

For `OC[C@H]1O[C@@H](c2n[nH]c3c(NC4CC4)ncnc23)[C@H](O)[C@@H]1O`, the CC50 at 48 h in data set [1] stood at 431 µM.

For `CC(C)Nc1ncnc2c([C@@H]3O[C@H](CO)[C@@H](O)[C@H]3O)n[nH]c12`, the CC50 at 48 h in data set [1] was over 1000 µM.

For `CSCc1ncnc2c([C@@H]3O[C@H](CO)[C@@H](O)[C@H]3O)n[nH]c12`, in data set [1], the CC50 at 48 h is over 1000 µM.

`CNc1ncnc2c([C@@H]3O[C@H](CO)[C@@H](O)[C@H]3O)n[nH]c12`: the IC50 with Influenza A virus was 0.015 µM. The cytotoxic concentration (CC50) at 48 h in data set [1] came out at 1.5 µM.

Regarding `Nc1ncnc2c([C@@H]3O[C@H](CO)[C@@H](O)[C@H]3O)[nH]nc12` [FORMYCIN], in the data set on Influenza A virus, the IC50 was 0.029 µM. In addition, the cytotoxic concentration (CC50) at 48 h in data set [1] came to 2.6 µM.

With `CSc1nc(Cl)nc2c([C@@H]3O[C@H](CO)[C@@H](O)[C@H]3O)n[nH]c12`, the IC50 with Influenza A virus is over 1 µM. Besides, the CC50 at 48 h in data set [1] was over 1000 µM.

Take `OC[C@H]1O[C@@H](c2n[nH]c3c(-n4ccnn4)ncnc23)[C@H](O)[C@@H]1O`: the IC50 in the data set with Influenza A virus stood at 0.343 µM. The CC50 at 48 h in data set [1] amounted to 287 µM.

As to `OC[C@H]1O[C@@H](c2n[nH]c3c(-n4nccn4)ncnc23)[C@H](O)[C@@H]1O`, the IC50 in the data set on Influenza A virus came to 0.103 µM. The CC50 at 48 h in data set [1] was under 0.1 µM.

In the case of `CCCCSc1ncnc2c([C@@H]3O[C@H](CO)[C@@H](O)[C@H]3O)n[nH]c12`, the CC50 at 48 h in data set [1] was found to be 238 µM.

As for `CSc1ncnc2c([C@@H]3O[C@H](CO)C[C@H]3O)n[nH]c12`, the CC50 at 48 h in data set [1] is over 1000 µM.

As to `CSc1nc(SC)c2[nH]nc([C@@H]3O[C@H](CO)[C@@H](O)[C@H]3O)c2n1`, in the data set with Influenza A virus, the IC50 was over 1 µM. Also, the CC50 at 48 h in data set [1] is over 1000 µM.

With `CSc1ncnc2c([C@@H]3O[C@H](CO)[C@@H](O)[C@]3(C)O)n[nH]c12`, the IC50 with Influenza A virus turned out to be 0.306 µM. The cytotoxic concentration (CC50) at 48 h in data set [1] is over 1000 µM.

With `OC[C@H]1O[C@@H](c2n[nH]c3c(N4CCCC4)ncnc23)[C@H](O)[C@@H]1O`, in data set [1], the CC50 at 48 h came out at 211 µM.

In the case of `CC(C)Sc1ncnc2c([C@@H]3O[C@H](CO)[C@@H](O)[C@H]3O)n[nH]c12`, the CC50 at 48 h in data set [1] came to 503 µM.

In the case of `CSc1ncnc2c([C@@H]3O[C@H](CO)[C@@H](O)[C@H]3O)n[nH]c12`, the IC50 in the data set with Influenza A virus was found to be 0.01 µM. Besides, in data set [1], the half-maximal cytotoxic concentration (CC50) at 48 h amounted to 9.3 µM.

On to `OC[C@H]1O[C@@H](c2n[nH]c3c(S)ncnc23)[C@H](O)[C@@H]1O`, for which the IC50 with Influenza A virus came to 0.571 µM. The CC50 at 48 h in data set [1] stood at 403 µM.

Take `NC(=O)CSc1ncnc2c([C@@H]3O[C@H](CO)[C@@H](O)[C@H]3O)n[nH]c12`: the CC50 at 48 h in data set [1] was determined as 307 µM.

On to `OC[C@H]1O[C@@H](c2n[nH]c3c(SCC(F)(F)F)ncnc23)[C@H](O)[C@@H]1O`, for which the IC50 with Influenza A virus stood at 1.09 µM. Also, the CC50 at 48 h in data set [1] came to 64 µM.
